These results are taken from ChEMBL document CHEMBL1135343, “Glutathione-like tripeptides as inhibitors of glutathionylspermidine synthetase. Part 2: substitution of the glycine part” (Bioorg Med Chem Lett, 2002).

In assay [1] the target is T1, Glutathionylspermidine synthase (Crithidia fasciculata) (UniProt P90518).
T1 sequence (whole entry): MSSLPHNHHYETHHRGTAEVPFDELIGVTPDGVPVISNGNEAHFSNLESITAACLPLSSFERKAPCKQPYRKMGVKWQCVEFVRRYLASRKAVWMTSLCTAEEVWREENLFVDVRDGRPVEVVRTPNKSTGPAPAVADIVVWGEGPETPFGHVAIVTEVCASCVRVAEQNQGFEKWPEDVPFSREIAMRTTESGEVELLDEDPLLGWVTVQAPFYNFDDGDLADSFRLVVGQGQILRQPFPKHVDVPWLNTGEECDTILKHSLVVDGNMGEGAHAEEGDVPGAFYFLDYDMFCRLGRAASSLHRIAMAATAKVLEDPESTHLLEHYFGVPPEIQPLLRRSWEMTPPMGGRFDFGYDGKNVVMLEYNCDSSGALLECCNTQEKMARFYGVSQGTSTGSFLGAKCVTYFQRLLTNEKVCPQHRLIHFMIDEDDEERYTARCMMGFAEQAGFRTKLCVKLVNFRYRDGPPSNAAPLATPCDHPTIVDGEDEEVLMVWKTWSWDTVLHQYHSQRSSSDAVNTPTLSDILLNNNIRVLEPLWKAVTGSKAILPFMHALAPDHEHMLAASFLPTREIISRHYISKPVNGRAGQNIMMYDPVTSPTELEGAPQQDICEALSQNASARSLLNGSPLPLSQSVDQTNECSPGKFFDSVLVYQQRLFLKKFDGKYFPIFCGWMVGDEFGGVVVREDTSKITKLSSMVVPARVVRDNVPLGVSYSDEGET
Nature of the assay: (§1) Tested against glutathionylspermidine synthetase (GspS) in Crithidia fasciculata. Further details: concentration or dose not given beside the values. As to conditions: concentration not given here.

Assay [2] deals with T2, Glutathionylspermidine synthase (Crithidia fasciculata, UniProt P90518).
T2 sequence (P90518 whole entry): T1 sequence (whole entry)
The experiment in a line: Inhibitory constant against glutathionylspermidine synthetase (GspS) in Crithidia fasciculata.

For assay [3], the target named is T2, Glutathionylspermidine synthase. Described as §1.

“And” between values parts separate entries of the source, which are not always exact repeats. Identical values can stand only once. Numbered stars: 1 amine (or outer) side, 2 acyl side, 3 side chain; on linkers, the order of the positions; unused ones are H or OH. Square brackets hold non-standard residues; d marks the D form. Peptide text beside a SMILES is read from it. γGlu = O=C(O)[C@H](CCC(=O)[*:2])N[*:1]; Orn = NCCC[C@H](N)C(=O)O; Dab = NCC[C@H](N)C(=O)O; Nva = CCC[C@H](N)C(=O)O; Dap = NC[C@H](N)C(=O)O

Consider `CC(C)C[C@H](NC(=O)CC[C@H](N)C(=O)O)C(=O)NCC(=O)O` (γGlu-Leu-Gly-OH), for which the inhibition in assay [1] is 0%.
For `CC(C)C[C@H](NC(=O)CC[C@H](N)C(=O)O)C(=O)N[C@@H](CN)C(=O)O` (γGlu-Leu-[Dap]-OH), the Ki in assay [2] is 7.2 µM and 21 µM. This compound also yielded an IC50 in assay [3] of 9.1 µM. This compound also gave an inhibition in assay [1] of 97%.
On to `CCC[C@H](NC(=O)[C@H](CC(C)C)NC(=O)CC[C@H](N)C(=O)O)C(=O)O` (γGlu-Leu-[Nva]-OH), for which inhibition in assay [3] was half-maximal at 145 µM (IC50). In addition, the inhibition in assay [1] was found to be 70%.
On to `CC(C)C[C@H](NC(=O)CC[C@H](N)C(=O)O)C(=O)N[C@@H](CC(=O)O)C(=O)O` (γGlu-Leu-Asp-OH), for which the IC50 in assay [3] was determined as 156 µM. Further, the inhibition in assay [1] came out at 69%.
For `CC(C)C[C@H](NC(=O)CC[C@H](N)C(=O)O)C(=O)N[C@@H](CO)C(=O)O` (γGlu-Leu-Ser-OH), in assay [2], the inhibition constant Ki was 14 µM and 25 µM. In addition, the IC50 in assay [3] stood at 11.7 µM. In assay [1], the inhibition was found to be 94%.
The compound `CC(C)C[C@H](NC(=O)CC[C@H](N)C(=O)O)C(=O)N[C@@H](CC(N)=O)C(=O)O` (γGlu-Leu-Asn-OH) yielded an IC50 in assay [3] of 142 µM. This compound had an inhibition in assay [1] of 68%.
Take `CC(C)C[C@H](NC(=O)CC[C@H](N)C(=O)O)C(=O)N[C@@H](CCN)C(=O)O` (γGlu-Leu-[Dab]-OH): the Ki in assay [2] was 10.4 µM and 24 µM. Also, in assay [3], 13.7 µM corresponded to half-maximal inhibition (IC50). This compound also displayed an inhibition in assay [1] of 95%.
`CC(C)C[C@H](NC(=O)CC[C@H](N)C(=O)O)C(=O)N[C@@H](CCC(=O)O)C(=O)O` (γGlu-Leu-Glu-OH) registered an IC50 in assay [3] of 227 µM. In addition, the inhibition in assay [1] was found to be 60%.
Consider `CC(C)C[C@H](NC(=O)CC[C@H](N)C(=O)O)C(=O)N[C@@H](CCCN=C(N)N)C(=O)O`, for which the Ki in assay [2] is 6.4 µM and 17 µM. Moreover, the IC50 in assay [3] was found to be 9.4 µM. The compound further displayed an inhibition in assay [1] of 95%.
`CCCC[C@H](NC(=O)[C@H](CC(C)C)NC(=O)CC[C@H](N)C(=O)O)C(=O)O` displayed an inhibition in assay [1] of 53%.
In the case of `CC(C)C[C@H](NC(=O)CC[C@H](N)C(=O)O)C(=O)N[C@@H](C)C(=O)O` (γGlu-Leu-Ala-OH), the IC50 in assay [3] was determined as 90 µM. The compound also showed an inhibition in assay [1] of 87%.
For `CC(C)C[C@H](NC(=O)CC[C@H](N)C(=O)O)C(=O)N[C@@H](CCCCN)C(=O)O` (γGlu-Leu-Lys-OH), in assay [2], the Ki was 27 µM and 48 µM. The IC50 in assay [3] worked out at 18 µM. Also, the inhibition in assay [1] came out at 93%.
Consider `CC(C)C[C@H](NC(=O)CC[C@H](N)C(=O)O)C(=O)N[C@@H](CCCN)C(=O)O` (γGlu-Leu-[Orn]-OH), for which the Ki in assay [2] is 10 µM and 39 µM. The IC50 in assay [3] is 10.3 µM. Further, in assay [1], the inhibition came to 95%.
For `CC(C)C[C@H](NC(=O)CC[C@H](NC(=O)OC(C)(C)C)C(=O)OC(C)(C)C)C(=O)N[C@@H](CCCCNCCCNC(=O)OC(C)(C)C)C(=O)O`, the IC50 in assay [3] stood at 157 µM. Moreover, the inhibition in assay [1] stood at 62%.
Take `CC(C)C[C@H](NC(=O)CC[C@H](N)C(=O)O)C(=O)N[C@@H](CCCCNCCCN)C(=O)O`: the Ki in assay [2] was 33 µM and 59 µM. The half-inhibitory concentration (IC50) in assay [3] worked out at 23 µM. In assay [1], this compound came in with an inhibition of 93%.
Turning to `CC(C)C[C@H](NC(=O)[C@H](CC(C)C)NC(=O)CC[C@H](N)C(=O)O)C(=O)O`, in assay [3], the IC50 turned out to be 365 µM. The inhibition in assay [1] is 59%.
Regarding `CC(C)C[C@H](NC(=O)CC[C@H](N)C(=O)O)C(=O)N[C@@H](CCCCNCCCCN)C(=O)O`, the inhibition constant (Ki) in assay [2] is 32 µM and 86 µM. Also, the IC50 in assay [3] worked out at 27.9 µM. The inhibition in assay [1] came out at 94%.

As usually defined, the inhibition is the change of the read-out against control, counted positive when it falls. Broadly, the Ki is the equilibrium dissociation constant of an inhibitor or competing ligand from its target. A word on the IC50: it is the point on the concentration scale where inhibition reaches its midpoint.
